Reference: PubChem BioAssay (NCI)
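The compound was tested at five concentrations on cells cultured in 96-well plates, with a 48-hour exposure period. TGI: concentration producing complete growth inhibition.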

Tests used:
Assay in all cases: growth of human tumour cells (NCI), 48 h
HL-60(TB) leukemia = system: HL-60(TB) leukemia
HOP-92 NSCLC = system: HOP-92 NSCLC
M14 melanoma = system: M14 melanoma
MDA-MB-435 = system: MDA-MB-435
MDA-N = system: MDA-N
SF-268 CNS = system: SF-268 CNS
SNB-19 CNS = system: SNB-19 CNS
SR leukemia = system: SR leukemia
U251 CNS = system: U251 CNS
UO-31 renal = system: UO-31 renal

`Brc1ccc2c(-c3nc(-c4c[nH]c5ccccc45)cs3)c[nH]c2c1` was tested, and the TGI (HL-60(TB) leukemia) was > 100 µM, the TGI (HOP-92 NSCLC) was > 100 µM and the TGI (M14 melanoma) was > 100 µM. For the same molecule, the TGI (MDA-MB-435) was > 100 µM, the TGI (MDA-N) was > 100 µM and the TGI (SF-268 CNS) was > 100 µM. The TGI (SNB-19 CNS) was > 100 µM, the TGI (SR leukemia) was > 82.3 µM and the TGI (U251 CNS) was > 100 µM. The TGI (UO-31 renal) was > 100 µM.

`CN(C(=O)C12C3C4(C(=O)O)C1(C(=O)N(C)C(C)(C)C)C1C2(C(=O)O)C3(C(=O)N(C)C(C)(C)C)C14C(=O)N(C)C(C)(C)C)C(C)(C)C` (configuration not stated) was tested, and the TGI (HL-60(TB) leukemia) was > 100 µM, the TGI (HOP-92 NSCLC) was > 100 µM and the TGI (M14 melanoma) was > 100 µM. The TGI (MDA-MB-435) was > 100 µM, the TGI (MDA-N) was > 100 µM and the TGI (SF-268 CNS) was > 100 µM. For the same molecule, the TGI (SNB-19 CNS) was > 100 µM, the TGI (SR leukemia) was > 100 µM and the TGI (U251 CNS) was > 100 µM. The TGI (UO-31 renal) was > 100 µM.

In the case of `CC1=NN(c2cccc(Cl)c2)C2(C1)C(Cl)C(=O)N2c1nc2ccccc2s1` (configuration not stated), the TGI (HL-60(TB) leukemia) was 53.4 µM, the TGI (HOP-92 NSCLC) was 75.6 µM and the TGI (M14 melanoma) was 64.1 µM. For the same molecule, the TGI (MDA-MB-435) was > 100 µM, the TGI (MDA-N) was > 100 µM and the TGI (SF-268 CNS) was > 100 µM. The TGI (SNB-19 CNS) was > 100 µM, the TGI (SR leukemia) was 34.3 µM and the TGI (U251 CNS) was 72.5 µM. It also gave a TGI (UO-31 renal) of 51.1 µM.

For `O=C(O)Cc1ccc(Oc2nc3ccccc3nc2-c2cccs2)cc1`, the TGI (HL-60(TB) leukemia) was > 100 µM, the TGI (HOP-92 NSCLC) was > 100 µM and the TGI (M14 melanoma) was > 100 µM. The TGI (MDA-MB-435) was > 100 µM, the TGI (MDA-N) was > 100 µM and the TGI (SF-268 CNS) was > 100 µM. The TGI (SNB-19 CNS) was > 100 µM, the TGI (SR leukemia) was > 100 µM and the TGI (U251 CNS) was > 100 µM. The TGI (UO-31 renal) was > 100 µM.

In the case of `O=c1c2ccccc2oc2c1ccc1ncccc12`, the TGI (HL-60(TB) leukemia) was > 100 µM, the TGI (HOP-92 NSCLC) was 59.3 µM and the TGI (MDA-MB-435) was > 100 µM. The TGI (MDA-N) was > 100 µM, the TGI (SF-268 CNS) was 78.2 µM and the TGI (SR leukemia) was > 100 µM. It also gave a TGI (UO-31 renal) of 40.9 µM.

With `Cc1ccccc1N=C(N)NC#N` the TGI (HL-60(TB) leukemia) was > 100 µM, the TGI (HOP-92 NSCLC) was > 100 µM and the TGI (M14 melanoma) was > 100 µM. The TGI (MDA-MB-435) was > 100 µM, the TGI (MDA-N) was > 100 µM and the TGI (SF-268 CNS) was > 100 µM. For the same molecule, the TGI (SNB-19 CNS) was > 100 µM, the TGI (SR leukemia) was > 100 µM and the TGI (U251 CNS) was > 100 µM. The TGI (UO-31 renal) was > 100 µM.

`Cc1cccc2c1C(=O)C1(Cc3ccccc3C1=O)C2` (configuration not stated) was tested, and the TGI (HL-60(TB) leukemia) was > 100 µM, the TGI (HOP-92 NSCLC) was > 100 µM and the TGI (M14 melanoma) was > 100 µM. The TGI (MDA-MB-435) was > 100 µM, the TGI (MDA-N) was > 100 µM and the TGI (SF-268 CNS) was > 100 µM. The TGI (SNB-19 CNS) was > 100 µM, the TGI (SR leukemia) was > 100 µM and the TGI (U251 CNS) was > 100 µM. For the same molecule, the TGI (UO-31 renal) was 96.2 µM.

With `C/C(O)=C/c1nc2ccccc2nc1/C=C(/C)O` the TGI (HL-60(TB) leukemia) was 56.4 µM, the TGI (HOP-92 NSCLC) was 66.2 µM and the TGI (M14 melanoma) was 44.4 µM. For the same molecule, the TGI (MDA-MB-435) was 59.8 µM, the TGI (MDA-N) was > 100 µM and the TGI (SF-268 CNS) was 64.6 µM. For the same molecule, the TGI (SNB-19 CNS) was > 100 µM, the TGI (SR leukemia) was 77.5 µM and the TGI (U251 CNS) was 50.9 µM. The TGI (UO-31 renal) was 56 µM.
